These results are taken from PubChem BioAssay AID1508591.

Some results are limits rather than exact numbers.

For this data set the following is noted: rat; liver microsomes; pH 7.4; 15.0 min; 1.0 µM.
In turn, `CCOc1ccc(CCNC(=O)c2cc3ncccc3n2Cc2cccc(C)n2)cc1OCC` gave a half-life of 6.7 min.

Consider `CCOC(=O)C1CCN(C(=O)C2(NC(=O)Nc3ccccc3Cl)CCC2)CC1`, for which the half-life was 1.7 min.

For the compound `Oc1ccc(NCc2ccccc2OCc2ccccc2Cl)cc1`, the half-life is 2.03 min.

On to `CCOc1ccc(CCNC(=O)c2cc3ccccc3n2Cc2cc(C)cc(C)n2)cc1OCC`, for which the half-life was 1.7 min.

Take `c1ccc2c(Nc3ccon3)nc(-c3ccncc3)nc2c1`: the half-life was 6.2 min. Compared with the last compound, the half-life is about 3.6-fold higher.

For the compound `NC(=O)C1CCN(c2nc(-c3ccc(OC(F)(F)F)cc3)cs2)CC1`, the half-life was 7.66 min.

Take `COC(C)(C)CCn1nc(Nc2c(C)cccc2C)c2cnc(Nc3ccc(OCCN4CCCC4)c(F)c3)nc21`: the half-life came to 3.28 min.

For the compound `Cc1cccc2nc(-c3cccnc3)c(Nc3ccc(C(C)C)cc3)n12`, the half-life is 1 min. Compared with the last compound, the half-life is about 3.3-fold lower.

Consider `Cn1nnnc1Sc1ncnc2scc(Br)c12`, for which the half-life worked out at 19.6 min.

As to `Cc1ccc(S(=O)(=O)Nc2ccccc2C(=O)Nc2nc(-c3ccc(Cl)cc3)cs2)cc1`, the half-life turned out to be 8.85 min.

In turn, `Cc1ccc(S(=O)(=O)Nc2cc(C)ccc2C(=O)Nc2nc(-c3ccccc3)cs2)cc1` gave a half-life of 2.5 min. This half-life is about 3.5-fold lower than that of the compound before.

As to `Cc1ccc(N2CCC(CNc3nc(-c4ccccc4C(C)C)ncc3F)CC2)cn1`, the half-life amounted to 2.4 min. This half-life and that of the compound before are within 1.5-fold of each other.

The compound `CC(=O)c1ccc(N2CCN(S(=O)(=O)c3ccc4[nH]c(=O)[nH]c4c3)CC2)cc1` gave a half-life greater than 30 min.

`CCOc1ccc(CCNC(=O)c2cc3sccc3n2Cc2ccccn2)cc1OCC` gave a half-life of 1.5 min.

As to `Cc1ccc(C(=O)Nc2nc3nc(-c4ccccc4)cc(=O)n3[nH]2)cc1`, the half-life was greater than 30 min.

On to `Cc1cc(-c2nnc3n2CCCCC3)c(C)n1-c1ccc(Cl)c(Cl)c1`, for which the half-life was found to be 1.9 min.

Take `Cn1cc(S(=O)(=O)N2CCCCCC2)cc1C(=O)Nc1ccc(Cl)c(C(F)(F)F)c1`: the half-life amounted to 5.98 min.

`CCOc1ccc(CNc2ccc3c(c2)ncn3C)cc1` yielded a half-life of 21 min.

As for `CC(=O)c1c(C)[nH]c(C(=O)Nc2ccc(C)c(S(=O)(=O)Nc3ccc(Br)cc3)c2)c1C`, the half-life was determined as 19 min.

Consider `Oc1ccc(CNc2cccnc2)c2cccnc12`, for which the half-life was found to be 3.56 min.

Compound `Cc1nc(N)nc2ccccc12` returned a half-life greater than 30 min.

In turn, `CC[C@@]1(O)C(=O)OCc2c1cc1n(c2=O)Cc2cc3ccccc3nc2-1` showed a half-life greater than 30 min.

In turn, `FC(F)(F)c1cccc(N2CCN(C(=S)Nc3cc4ccccc4cn3)CC2)c1` returned a half-life greater than 30 min.

`COc1ncc(-c2n[nH]c3c2CC(=O)N(c2ccccc2)C3)cn1` displayed a half-life greater than 30 min.

In turn, `CCn1ncc(NC(=O)Cn2ncc3cc(-c4cccc(OC)c4)ccc32)n1` had a half-life of 20.4 min.

Take `COc1cc(F)ccc1-c1nc(-c2c(C)noc2C)cc2c1cc(C)n2C`: the half-life worked out at 21.6 min. The half-life values of the last two compounds are within 1.5-fold of each other.

With `Cc1ccc(NC(=O)c2c(N3CCCC3=O)c3cc(C)ccc3n2C)c(C)c1`, the half-life amounted to 1.31 min.

For `CN(C)CC/C=C1\c2ccccc2Sc2ccc(Cl)cc21`, the half-life was 1.76 min. The half-life values of the last two compounds are within 1.5-fold of each other.

The compound `Fc1cccc(CNc2nc(-c3ccccc3C(F)(F)F)nc3ccccc23)c1` returned a half-life of 2.55 min.

On to `COc1ccc2nc(C)cc(Nc3ccc(Cl)c(Cl)c3)c2c1`, for which the half-life came out at 15.5 min.

As to `COc1cc(Cl)c(C)cc1Nc1c2c(nc3ccccc13)CCC2`, the half-life was found to be 1.75 min. This half-life is about 8.9-fold lower than that of the compound before.

On to `COc1cccc(C(=O)Nc2nnc(S(=O)(=O)N3CCOCC3)s2)c1`, for which the half-life was greater than 30 min.

In turn, `N#C/C(=C\c1ccc(-c2ccc(C(=O)O)cc2)o1)c1nc2ccccc2[nH]1` registered a half-life greater than 30 min.

Regarding `CCn1cc(CNC(=O)c2cc(-c3ccc(C)cc3)nc3ccc(Br)cc23)c(C)n1`, the half-life is 10.9 min.

Consider `Cc1sc(NC(=O)Cc2ccc3c(c2)OCO3)nc1-c1ccc2c(c1)CCN2`, for which the half-life was 8.6 min.

Turning to `O=C1C(SCCO)=C(SCCO)C(=O)c2ccccc21`, the half-life was greater than 30 min.

`O=C(O)c1ccccc1-c1ccc(/C=c2\sc3nc4cc(Br)cnc4n3c2=O)o1` displayed a half-life of 22 min.

For the compound `Cc1cc(C)nc(NC(=S)N2CCN(c3cccc([N+](=O)[O-])c3)CC2)c1`, the half-life was determined as 17 min. This half-life and that of the compound before are within 1.5-fold of each other.

Take `COCCOc1cnc2ccn([C@H](C)c3nnc4c(F)cc(-c5cnn(C)c5)cn34)c(=O)c2c1`: the half-life was greater than 30 min.

`O=S(=O)(c1ccccc1)c1nnn2c1nc(NCc1cccs1)c1sccc12` came in with a half-life of 1.88 min.

`CC(=O)c1c(C)[nH]c(C(=O)Nc2cccc([S+](=O)([O-])Nc3ccccc3)c2)c1C` yielded a half-life of 4.2 min.

Consider `Cc1ccccc1C(=O)Nc1ccc2c(c1)CCCN2C(=O)c1cccs1`, for which the half-life is 7.79 min.

Regarding `Cc1nn(CCc2nc(-c3ccccc3)cs2)c2[nH]c(=O)cc(C(F)(F)F)c12`, the half-life turned out to be 10.3 min. This half-life and that of the compound before are within 1.5-fold of each other.

`Cc1cccc(OCC(=O)Nc2ccc3nc(Nc4cccc(Cl)c4)cc(C)c3c2)c1` yielded a half-life greater than 30 min.

Consider `Cc1cc(-c2nc(Nc3ccc(F)c(F)c3)c3ccccc3n2)cc(C)n1`, for which the half-life was greater than 30 min.

Compound `CN[C@@H]1C[C@@H](c2ccc(Cl)c(Cl)c2)c2ccccc21` showed a half-life of 17.2 min.

`COc1ccc(C2c3c(oc4ccc(Cl)cc4c3=O)C(=O)N2CCCN(C)C)cc1OC` (stereo not drawn) displayed a half-life greater than 30 min.

`O=C(Nc1ncnc2sc3c(c12)CCCCC3)c1ccco1` had a half-life of 2.3 min.

`Cc1cccc(C)c1NC(=O)c1nc(SC(C)C)ncc1Cl` showed a half-life of 1.38 min.

In the case of `CCOc1ccc(/C=C/c2nc3ccccc3n2S(=O)(=O)c2ccc(Br)cc2)cc1`, the half-life was greater than 30 min.

`O=C(Cc1ccc2ccccc2c1)Nc1ccc(S(=O)(=O)Nc2nccs2)cc1` yielded a half-life greater than 30 min.

`CC(C)(C)C(=O)N1CCN(c2nccc(Nc3ccccc3Cl)n2)CC1` had a half-life of 4.07 min.

`Cc1ccc(-c2cc(C(=O)Nc3cccc(S(N)(=O)=O)c3)c3ccccc3n2)cc1C`: the half-life came out at 12 min.

`c1ccc2c(NC3CCCCC3)nc(-c3ccncc3)nc2c1`: the half-life stood at 10 min.

`COCCn1ccc2c(C3=CCOCC3)nc(-c3ccc4c(c3)CNC4=O)cc21` came in with a half-life of 9.18 min. The half-life values of the last two compounds are within 1.5-fold of each other.

`COCCNC(=O)c1ccc(Cn2c(=S)[nH]c3cc4c(cc3c2=O)OCO4)cc1` came in with a half-life greater than 30 min.

`COc1cc2c(C(=O)N3CCN(c4cccc(C(F)(F)F)c4)CC3)cn(CC(C)C)c(=O)c2cc1OC`: the half-life is 3.15 min.

The compound `COc1ccc(C)cc1Nc1c2c(nc3ccccc13)CCC2` yielded a half-life of 1.55 min.

The compound `COCC(C)NCc1cc2ccc(OC)cc2nc1N1CCN(c2ccc(F)cc2)CC1` (stereo not drawn) registered a half-life of 10.4 min.

For `CCOc1ccc(CCNC(=O)c2ccc(Oc3ccccc3)cc2)cc1OCC`, the half-life was determined as 1.9 min.

In the case of `O=C(Nc1ccc(S(=O)(=O)N2CCN(Cc3ccccc3)CC2)cc1)c1cnccn1`, the half-life was 1.8 min.

`O=C1CCCC2=C1C(c1ccccc1I)N=C(Nc1nc3ccccc3o1)N2` (stereo not drawn) gave a half-life of 8.4 min. This half-life lies about 4.7-fold higher than the previous one.

In turn, `NC(=O)C1CCN(c2nc(-c3ccc(N4CCCCC4)nc3)cs2)CC1` came in with a half-life of 17.2 min. Against the preceding compound, the half-life is about 2-fold higher.

Consider `CCOc1ccc(CCNC(=O)c2ccc(C3(C(F)(F)F)N=N3)cc2)cc1OCC`, for which the half-life stood at 11 min.

For the compound `CC1=C[C@@H](CNC(C)C)[C@H](C(C)C)C[C@H]1Cc1nnc(-c2ccncc2)o1`, the half-life was determined as 4.76 min.

The compound `C[C@@H]1C(=O)O[C@H]2[C@H]1CC[C@@]1(C)Cc3sc(NS(=O)(=O)Cc4ccccc4)nc3[C@@H](C)[C@H]21` came in with a half-life of 1.69 min. This half-life is about 2.8-fold lower than that of the compound before.

Consider `Cc1ccc(NS(=O)(=O)c2c(C)[nH]c(C)c2C(=O)N2CCCC2)cc1Cl`, for which the half-life came out at 1.03 min.

In turn, `CCN1C(=O)c2ccccc2S(=O)c2ccc(C(=O)NCc3ccc(OC)cc3)cc21` (stereo not drawn) showed a half-life of 7.8 min. Against the preceding compound, the half-life is about 7.6-fold higher.

Compound `CC1=C(C(=O)Nc2ccccc2)C(c2ccc[nH]2)n2ncnc2N1` (stereo not drawn) had a half-life greater than 30 min.

Regarding `C[C@@H]1CC(=O)Nc2cccc(-c3cnn(C(C)(C)C)c3)c2N1`, the half-life is greater than 30 min.

As for `CCOC(=O)c1c(NC(=O)CN2CCCCC2)sc2c1CCN(C(=O)OCC)C2`, the half-life amounted to 5.2 min.

As to `CC(C)NC(=O)c1nc(-c2ccc(Cl)nc2)c2cnccn12`, the half-life was greater than 30 min.

In turn, `O=C1Nc2ccccc2/C1=C\c1ccc(O)c(Cl)c1` had a half-life of 16 min.

Compound `Cc1ccc(NS(=O)(=O)c2cccc(C(=O)O)c2)cc1S(=O)(=O)N1CCOCC1` came in with a half-life greater than 30 min.

Regarding `CCCNC(=O)c1ccc2c(c1)N=C(C)c1c(C)ccc(C)c1S2`, the half-life amounted to 1.34 min.

Regarding `NC(=O)C1CCN(c2cc(-c3ccc4c(c3)OCCCO4)ncn2)CC1`, the half-life is greater than 30 min.

As for `Cc1ccccc1S(=O)(=O)N1CCCC(CCC(=O)NCCN(C)C2CCCCC2)C1` (stereo not drawn), the half-life amounted to 2.16 min.

For `CSc1ncc(Cl)c(C(=O)Nc2c(C)cccc2C)n1`, the half-life was 5.48 min.

For `Cc1ccccc1C(C(=O)NC1CCCC1)N(C(=O)Cn1cnc2ccccc21)c1cccc(F)c1` (stereo not drawn), the half-life was found to be 1.67 min.

With `CO[C@@H]1[C@H](N(C)C(=O)c2ccccc2)C[C@H]2O[C@]1(C)n1c3ccccc3c3c4c(c5c6ccccc6n2c5c31)C(=O)NC4`, the half-life came to 6.54 min.

In the case of `CCOC(=O)c1ccnc2cc(C(OCCN3CCCCC3)c3ccccc3Cl)sc12` (stereo not drawn), the half-life was found to be 2.34 min.

Turning to `O=C(NCc1ccccc1)c1nc(S(=O)(=O)Cc2ccc(F)cc2)ncc1Cl`, the half-life is 1.98 min.

In turn, `CN(C)CCCN1c2ccc(O)cc2Sc2ccc(Cl)cc21` had a half-life of 10.7 min.

`O=C(Cc1cccs1)NCc1nnc2ccc(-c3ccccc3)nn12` gave a half-life of 17.8 min. This half-life lies about 1.7-fold higher than the previous one.

The compound `CNc1oc(-c2cccc3ccccc23)nc1C#N` came in with a half-life of 17.7 min.

The compound `c1ccc(-c2ccc(CNc3nc(-c4ccccn4)nnc3-c3ccccc3)cc2)cc1` returned a half-life of 7.73 min. Against the preceding compound, the half-life is about 2.3-fold lower.

Regarding `O=C(COc1ccccc1)NCC(c1cccs1)S(=O)(=O)c1ccc(Cl)cc1` (stereo not drawn), the half-life amounted to 1.44 min.

As for `Cc1noc(/C=C/c2ccccc2F)c1S(=O)(=O)N1CCC(C(=O)Nc2ccc(C#N)cc2)CC1`, the half-life was determined as 24.7 min.

`Nc1c(C(=O)Nc2ccc(Cl)cc2)sc2nc3c(cc12)N1CCC3CC1` had a half-life of 24 min.

The compound `Fc1ccc(Nc2nc(-c3ccncc3)cc3ccccc23)cc1F` gave a half-life of 24 min.

`Cc1cccc(-n2cnc3cc(C(=O)N4CCCCCC4)ccc32)c1` had a half-life of 2.9 min.

`COc1ccc(-n2nc(C3CCN(C(=O)Cc4ccc(F)cc4)CC3)[nH]c2=O)cc1` had a half-life of 7.87 min.

`Cc1cccc(C(=O)Nc2ccc(N3CCC(N4CCCCC4)CC3)c(C(=O)O)c2)c1` showed a half-life greater than 30 min.

In general, half-life refers to the time needed for the level to fall by half in the phase considered.
